Assay results reported in US20250351829A1, “HERBICIDAL COMBINATIONS AND A METHOD FOR CONTROLLING UNDESIRED VEGETATION” (UPL Mauritius Limited, priority 2022, published 2025).

Tested on: Bidens pilosa
Test: Post-emergence herbicidal activity, weed control efficacy trials
Type: in vivo
Settings: 7 DAA
Method: Methodology: Trials were conducted to evaluate the efficacy of the combinations comprising L-glufosinate ammonium and additional herbicides on Bidens pilosa weed.
The soil used was sandy clay loam-sand: 68.0%; silt: 8.0%; clay: 24.0%.
All treatments were in 3 replications per treatment with a spray volume of about 150 L/ha.
Efficacy Evaluation: The expected efficacy of the combination comprising L-glufosinate ammonium and additional herbicides was calculated using the well-established Colby method.
In the Colby method, the expected (or predicted) response of a combination of herbicides is calculated by taking the product of the observed response for each individual component of the combination when applied alone, divided by 100, and subtracting this value from the sum of the observed response for each component when applied alone. An unexpected enhancement in efficacy of the combination is then determined by comparing the observed response of the combination to the expected (or predicted) response as calculated from the observed response of each individual component alone. If the observed response of the combination is greater than the expected (or predicted) response, or stated conversely, if the difference between the observed and expected response is greater than zero, then the combination is said to be synergistic or unexpectedly effective (Colby, S. R., Weeds, 1967(15), p. 20-22). The Colby method requires only a single dose of each herbicide applied alone and the mixture of both doses. The formula used to calculate the expected efficacy (EE) which was compared with the observed efficacy (OE) to determine the efficacy of the present disclosure is explained hereinbelow: […]

## Cc1ccc2c(c1)[C@H](Nc1nc(N)nc(C(C)F)n1)[C@@H](C)C2 (stereo partly drawn) [Indaziflam]
50 g a.i./ha
  Observed efficacy (%) of Indaziflam (50 g a.i./ha): 90%

## CP(=O)(O)CC[C@H](N)C(=O)O.N [L-glufosinate ammonium]
Example 1
  Observed efficacy (%) of L-glufosinate ammonium (150 g a.i./ha): 95%
Example 2
  Observed efficacy (%) of L-glufosinate ammonium (150 g a.i./ha): 95%
Example 3
  Observed efficacy (%) of L-glufosinate ammonium (150 g a.i./ha): 95%

## CCc1cccc(C)c1N(COC(C)C)C(=O)CCl [Propisochlor]
540 g a.i./ha
  Observed efficacy (%) of Propisochlor (540 g a.i./ha): 5%

## Cn1nc(C(F)(F)F)c(CS(=O)(=O)C2=NOC(C)(C)C2)c1OC(F)F [pyroxasulfone, Pyroxasulfone]
75 g a.i./ha
  Observed efficacy (%) of pyroxasulfone (75 g a.i./ha): 5%
